The source made the active and inactive calls. No cut-off for these calls is given here. Where a SMILES comes first, the peptide text is derived from it. [ ]: non-standard residue; d: D form. Aun = NCCCCCCCCCCC(=O)O; AEEA = NCCOCCOCC(=O)O; Aib = CC(C)(N)C(=O)O; Aoc = NCCCCCCCC(=O)O
How the values were obtained:
[1] = biological target: T1, Glucagon-like peptide 1 receptor (Homo sapiens, UniProt P43220); test: Activation of GLP-1 receptor (unknown origin) expressed in CHO-K1 cells assessed as increase in cAMP accumulation by time-resolved fluorescence resonance energy transfer immunoassay; type: functional, cell-based
[2] = biological target: Albumin (Homo sapiens, UniProt P02768); test: Binding affinity to albumin (unknown origin) by HPLC analysis
[3] = biological target: T1, Glucagon-like peptide 1 receptor; test: Binding affinity to GLP-1 receptor (unknown origin) assessed as dissociation rate constant by surface plasmon resonance analysis; conditions: filed as activator
[4] = tested on: Mus musculus; test: Antidiabetic activity in mouse assessed as decrease in blood glucose level at 30 nmol/kg, sc measured after 24 hrs; type: functional, organism-based
[5] = biological target: T1, Glucagon-like peptide 1 receptor; test: Binding affinity to GLP-1 receptor (unknown origin) assessed as equlibrium constant by surface plasmon resonance analysis
[6] = biological target: T1, Glucagon-like peptide 1 receptor; test: Binding affinity to GLP-1 receptor (unknown origin) assessed as binding rate constant by surface plasmon resonance analysis; conditions: filed as activator
[7] = tested on: Mus musculus; test: Antidiabetic activity in mouse assessed as decrease in AUC (0 to 24hrs) glucose level at 30 nmol/kg, sc measured after 24 hrs; type: functional, organism-based
[8] = tested on: Mus musculus; test: Antidiabetic activity in mouse assessed as decrease in body weight at 30 nmol/kg, sc measured after 24 hrs; type: functional, organism-based
[9] = biological target: T2, Glucagon-like peptide 1 receptor (Rattus norvegicus) (UniProt P32301); test: Activation of GLP-1 receptor in rat INS-1 cells assessed as cAMP accumulation at 10 nmol/L time-resolved fluorescence resonance energy transfer immunoassay; type: functional, cell-based; conditions: INS1, filed as activator
T2 sequence (whole entry): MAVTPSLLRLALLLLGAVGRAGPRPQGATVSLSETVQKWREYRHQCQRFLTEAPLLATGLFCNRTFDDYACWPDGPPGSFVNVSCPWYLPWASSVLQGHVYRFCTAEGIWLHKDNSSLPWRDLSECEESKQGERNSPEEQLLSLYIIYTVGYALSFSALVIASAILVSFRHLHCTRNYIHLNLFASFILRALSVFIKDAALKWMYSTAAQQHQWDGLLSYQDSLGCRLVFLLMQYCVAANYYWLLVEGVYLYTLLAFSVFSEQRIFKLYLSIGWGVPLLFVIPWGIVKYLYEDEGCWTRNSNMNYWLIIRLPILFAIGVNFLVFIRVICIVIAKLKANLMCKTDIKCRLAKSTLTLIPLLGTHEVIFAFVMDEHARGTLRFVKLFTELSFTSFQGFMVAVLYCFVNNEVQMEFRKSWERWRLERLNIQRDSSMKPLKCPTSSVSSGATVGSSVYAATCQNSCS

Sequence of Albumin (P02768 whole entry): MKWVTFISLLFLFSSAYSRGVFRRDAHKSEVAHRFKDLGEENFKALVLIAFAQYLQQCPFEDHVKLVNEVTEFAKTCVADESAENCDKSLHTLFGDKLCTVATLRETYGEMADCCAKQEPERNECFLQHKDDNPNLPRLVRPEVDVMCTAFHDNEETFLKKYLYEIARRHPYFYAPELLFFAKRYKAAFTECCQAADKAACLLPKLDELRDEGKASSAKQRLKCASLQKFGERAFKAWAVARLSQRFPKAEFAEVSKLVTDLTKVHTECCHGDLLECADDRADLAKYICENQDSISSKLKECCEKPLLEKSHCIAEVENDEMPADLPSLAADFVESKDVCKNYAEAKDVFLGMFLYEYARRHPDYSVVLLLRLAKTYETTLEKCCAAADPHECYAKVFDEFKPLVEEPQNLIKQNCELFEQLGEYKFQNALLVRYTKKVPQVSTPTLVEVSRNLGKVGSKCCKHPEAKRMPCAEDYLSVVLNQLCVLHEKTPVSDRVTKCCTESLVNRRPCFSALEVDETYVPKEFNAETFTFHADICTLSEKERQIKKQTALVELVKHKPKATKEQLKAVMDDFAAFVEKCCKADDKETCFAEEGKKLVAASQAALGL
T1 sequence (P43220 whole entry): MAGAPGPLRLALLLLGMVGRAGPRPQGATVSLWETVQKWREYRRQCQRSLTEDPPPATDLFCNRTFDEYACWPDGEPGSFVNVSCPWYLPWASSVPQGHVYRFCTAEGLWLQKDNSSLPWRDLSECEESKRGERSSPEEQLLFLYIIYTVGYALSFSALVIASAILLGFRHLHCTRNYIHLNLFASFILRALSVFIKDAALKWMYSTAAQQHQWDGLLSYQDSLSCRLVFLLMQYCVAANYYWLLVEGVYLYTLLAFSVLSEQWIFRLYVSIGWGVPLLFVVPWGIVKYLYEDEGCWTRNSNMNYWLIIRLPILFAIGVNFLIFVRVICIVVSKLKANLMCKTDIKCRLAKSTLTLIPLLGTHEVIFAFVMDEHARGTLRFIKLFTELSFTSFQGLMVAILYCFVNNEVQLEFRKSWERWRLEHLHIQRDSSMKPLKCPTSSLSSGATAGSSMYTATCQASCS

Row | Compound | EC50 [1] | Activity [2] | Kdiss [3] | Activity [4] | Kd [5] | Ka [6] | Activity [7] | Activity [8] | Activity [9]
1 | H-[Aib]EGTFTSDVSSYLEGQAAKEFIAWLVKG[AEEA][AEEA]GVKALIDEILAA-NH2 | 0.17 nM | 65.6% | 3.25 10^-2/s | Active | 912 nM | 3.57 10^4/Ms | Active |  | 
2 | H-[Aib]EGTFTSDVSSYLEGQAAKEFIAWLVKG[Aun][AEEA]GVKALIDEILAA-NH2 | 0.158 nM | 76.4% | 1.97 10^-2/s | Active | 1490 nM | 1.32 10^4/Ms | Active | Active | 
3 | CC[C@H](C)[C@H](NC(=O)[C@H](Cc1ccccc1)NC(=O)[C@H](CCC(=O)O)NC(=O)[C@H](CCCCN)NC(=O)[C@H](C)NC(=O)[C@H](C)NC(=O)[C@H](CCC(N)=O)NC(=O)CNC(=O)[C@H](CCC(=O)O)NC(=O)[C@H](CC(C)C)NC(=O)[C@H](Cc1ccc(O)cc1)NC(=O)[C@H](CO)NC(=O)[C@H](CO)NC(=O)[C@@H](NC(=O)[C@H](CC(=O)O)NC(=O)[C@H](CO)NC(=O)[C@@H](NC(=O)[C@H](Cc1ccccc1)NC(=O)[C@@H](NC(=O)CNC(=O)[C@H](CCC(=O)O)NC(=O)C(C)(C)N)[C@@H](C)O)[C@@H](C)O)C(C)C)C(=O)N[C@@H](C)C(=O)N[C@@H](Cc1c[nH]c2ccccc12)C(=O)N[C@@H](CC(C)C)C(=O)N[C@H](C(=O)N[C@@H](CCCCN)C(=O)NCC(=O)NCC(=O)N[C@H](C(=O)N[C@@H](CCCCN)C(=O)N[C@@H](C)C(=O)N[C@@H](CC(C)C)C(=O)N[C@H](C(=O)N[C@@H](CC(=O)O)C(=O)N[C@@H](CCC(=O)O)C(=O)N[C@H](C(=O)N[C@@H](CC(C)C)C(=O)N[C@@H](C)C(=O)N[C@@H](C)C(N)=O)[C@@H](C)CC)[C@@H](C)CC)C(C)C)C(C)C (H-[Aib]EGTFTSDVSSYLEGQAAKEFIAWLVKGGVKALIDEILAA-NH2) | 0.0651 nM | 86.2% | 1.12 10^-2/s | Active | 3750 nM | 2.99 10^3(1/Ms) | Active | Active | Active
4 | H-[Aib]EGTFTSDVSSYLEGQAAKEFIAWLVKG[AEEA]GVKALIDEILAA-NH2 | 0.132 nM | 75.4% | 1.94 10^-2/s | Active | 994 nM | 1.95 10^4/Ms |  |  | 
5 | H-[Aib]EGTFTSDVSSYLEGQAAKEFIAWLVKG[Aoc]GVKALIDEILAA-NH2 | 0.204 nM | 77.4% | 1.41 10^-2/s | Active | 700 nM | 2.01 10^4/Ms | Active |  | 
6 | SEMAGLUTIDE [listing 1 of 2 here] |  |  | 3.2 10^-2/s | Active |  | 7.26 10^4/Ms | Active |  | 
7 | H-[Aib]EGTFTSDVSSYLEGQAAKEFIAWLVKG[Aun]GVKALIDEILAA-NH2 | 0.209 nM | 89.2% | 1.1 10^-2/s | Active | 1460 nM | 7.53 10^3(1/Ms) | Active | Active | Active
8 | SEMAGLUTIDE [listing 2 of 2 here] |  | > 99% |  |  |  |  |  |  | 
9 | H-[Aib]EGTFTSDVSSYLEGQAAKEFIAWLVKG[Aoc][AEEA]GVKALIDEILAA-NH2 | 0.135 nM | 66.5% | 1.65 10^-2/s | Active | 532 nM | 3.11 10^4/Ms | Active |  | 

Source: ChEMBL document CHEMBL5120806, “Synthesis and biological evaluation of glucagon-like peptide-1 analogs with the C-terminal helix 3 of albumin-binding domain 3” (Bioorg Med Chem, 2022)
